Experimental data reported in article PMC7182704 (Computational and Structural Biotechnology Journal, 2020).

What was measured:
DhlA = conditions: pH 8.2, 30 °C; cited from earlier work
LinB [1] = molecular target: T1, LinB (Sphingobium indicum, UniProt D4Z2G1); conditions: pH 8.6, 37 °C, cited from earlier work
T1 sequence (D4Z2G1 1-296): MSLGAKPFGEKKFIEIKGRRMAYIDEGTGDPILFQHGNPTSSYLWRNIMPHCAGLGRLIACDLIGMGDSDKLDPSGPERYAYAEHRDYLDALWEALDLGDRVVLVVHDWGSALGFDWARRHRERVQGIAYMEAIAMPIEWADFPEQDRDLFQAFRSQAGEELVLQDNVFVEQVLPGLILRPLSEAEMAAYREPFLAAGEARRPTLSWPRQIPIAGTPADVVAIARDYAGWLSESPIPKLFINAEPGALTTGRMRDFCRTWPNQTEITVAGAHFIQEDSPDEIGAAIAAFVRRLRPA

[2] = Photophysical properties of fluorescent substrates; type: physicochemical
[3] = Stability of COU–Br and BDP–Cl in the dark and under irradiation; type: physicochemical; conditions: 10 µM, pH 8.0, 30 °C
DmmA = molecular target: T2, DmmA (Lyngbya majuscula, UniProt Q6DND9); conditions: 37 °C, pH 8.6; cited from earlier work
T2 sequence (Q6DND9 25-341): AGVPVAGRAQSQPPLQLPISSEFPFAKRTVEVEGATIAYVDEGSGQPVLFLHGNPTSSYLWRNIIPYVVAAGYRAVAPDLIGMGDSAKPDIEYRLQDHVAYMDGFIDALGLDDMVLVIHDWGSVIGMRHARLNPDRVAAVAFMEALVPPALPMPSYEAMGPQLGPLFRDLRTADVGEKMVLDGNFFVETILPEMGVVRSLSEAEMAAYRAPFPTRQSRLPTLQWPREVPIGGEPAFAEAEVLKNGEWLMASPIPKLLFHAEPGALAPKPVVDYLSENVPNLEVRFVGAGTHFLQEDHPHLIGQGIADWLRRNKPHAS

LinB [4] = molecular target: T1, LinB; conditions: 37 °C, pH 8.6; cited from earlier work
DhaA = conditions: pH 9.4, 30 °C; cited from earlier work
[5] = substrate: COc1cc2oc(=O)cc(CBr)c2cc1OC; experiment: Steady-state kinetics, fluorescence progress curves fitted globally; type: biochemical, marine microbial consortium; conditions: other: DmmA, 30 °C, pH 8.0
[6] = PBS buffer/DMSO (90:10, v/v), pH 8.0, c ≈ 10^−6 M

ClCCCl [DCE, 1,2-dichloroethane]
k1 (DhlA): 9 ± 1 × 10^-3 μM^−1s^−1 | k2 (DhlA): 50 ± 10 s⁻¹ | k3 (DhlA): 14 ± 3 s⁻¹ | k4 (DhlA): 8 ± 2 s⁻¹ | k−1 (DhlA): 20 ± 5 s⁻¹

CCCCCCCl [CH, 1-chlorohexane]
k3 (LinB [1]; three-step model): 3.2 ± 0.2 s⁻¹ | k2 (LinB [1]): 117 ± 5 s⁻¹

COc1cc2oc(=O)cc(CBr)c2cc1OC [COU–Br, 4-(bromomethyl)-6,7-dimethoxycoumarin]
increase in quantum yield upon covalent binding to HLDs [2]: 6 fold | Φfl (quantum yield of fluorescence) [2, 6]: 15.2 ± 1.2% | λmax (absorption maximum) [2, 6]: 354 nm | ε (molar absorption coefficient) ([2]; neat DMSO, three independent measurements): 11,500 M^−1cm^−1 | stability under irradiation ([3]; PBS buffer/DMSO (90:10), xenon lamp 100 W, 10 min): slowly degraded under irradiation | stability in the dark ([3]; PBS buffer/DMSO (90:10, v/v)): stable in the dark

BrCCBr [DBE, 1,2-dibromoethane]
Km (DmmA): 2300 ± 300 µM | kcat (DmmA): 1.8 ± 0.4 s⁻¹ | Km (LinB [4]): 1700 ± 200 µM | kcat (LinB [4]): 12 ± 4 s⁻¹

BrCCCBr [DBP, 1,3-dibromopropane]
k1 (DhaA): 800000 to 2.5e+06 M⁻¹ s⁻¹ | k2 (DhaA): 249 to 272 s⁻¹ | k3 (DhaA): 13.5 to 16.3 s⁻¹ | k4 (DhaA): 3.4 to 4.6 s⁻¹ | k−1 (DhaA): 60 to 300 s⁻¹

CCCCCl [CB, 1-chlorobutane]
Km (DmmA): 400 ± 100 µM | kcat (DmmA): 0.17 ± 0.02 s⁻¹ | Km (LinB [4]): 240 ± 20 µM | kcat (LinB [4]): 1.00 ± 0.03 s⁻¹

B1: DmmA (Lyngbya majuscula) (protein)
chain: T2 sequence (Q6DND9 25-341)
Km [5]: 0.9 ± 0.6 µM | kcat [5]: 1.9 ± 0.1 s⁻¹ | kcat/Km [5]: 2.1e+06 M⁻¹ s⁻¹
